Measurements from ChEMBL document CHEMBL3259532, “Elucidation of different inhibition mechanism of small chemicals on PtdInsP-binding domains using in silico docking experiments” (Bioorg Med Chem Lett, 2014).

Columns and labels:
[1] = molecular target: T1, Epsin-1 (Homo sapiens) (UniProt Q9Y6I3); experiment: Inhibition of C-terminal 6xHis-tagged epsin-1 ENTH domain (unknown origin) expressed in Escherichia coli BL21(DE3) RIL assessed as inhibition of interaction with PtdIns(4,5)P2 at 100 uM after 15 mins by SPR analysis relative to control
T1 sequence (whole entry): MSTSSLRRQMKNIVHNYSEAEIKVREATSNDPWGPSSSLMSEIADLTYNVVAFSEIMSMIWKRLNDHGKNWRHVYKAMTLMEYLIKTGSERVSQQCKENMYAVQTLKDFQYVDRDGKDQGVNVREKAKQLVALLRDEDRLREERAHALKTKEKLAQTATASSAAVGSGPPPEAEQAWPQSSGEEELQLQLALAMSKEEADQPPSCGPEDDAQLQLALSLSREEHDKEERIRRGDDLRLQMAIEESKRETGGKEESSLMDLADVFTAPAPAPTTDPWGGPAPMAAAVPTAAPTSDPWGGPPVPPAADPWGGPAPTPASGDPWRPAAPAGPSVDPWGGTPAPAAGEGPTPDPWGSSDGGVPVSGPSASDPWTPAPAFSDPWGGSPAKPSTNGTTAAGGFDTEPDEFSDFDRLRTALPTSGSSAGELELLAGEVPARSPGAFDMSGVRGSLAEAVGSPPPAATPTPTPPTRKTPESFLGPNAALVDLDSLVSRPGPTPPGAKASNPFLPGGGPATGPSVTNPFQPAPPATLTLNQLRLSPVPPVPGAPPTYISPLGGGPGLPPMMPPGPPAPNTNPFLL

[2] = molecular target: T2, Cytohesin-3 (Homo sapiens) (UniProt O43739); experiment: Inhibition of C-terminal 6xHis-tagged Grp1 PH domain (unknown origin) expressed in Escherichia coli BL21(DE3) RIL assessed as inhibition of interaction with PtdIns(3,4,5)P3 at 500 uM after 15 mins by SPR analysis relative to control
T2 sequence (whole entry): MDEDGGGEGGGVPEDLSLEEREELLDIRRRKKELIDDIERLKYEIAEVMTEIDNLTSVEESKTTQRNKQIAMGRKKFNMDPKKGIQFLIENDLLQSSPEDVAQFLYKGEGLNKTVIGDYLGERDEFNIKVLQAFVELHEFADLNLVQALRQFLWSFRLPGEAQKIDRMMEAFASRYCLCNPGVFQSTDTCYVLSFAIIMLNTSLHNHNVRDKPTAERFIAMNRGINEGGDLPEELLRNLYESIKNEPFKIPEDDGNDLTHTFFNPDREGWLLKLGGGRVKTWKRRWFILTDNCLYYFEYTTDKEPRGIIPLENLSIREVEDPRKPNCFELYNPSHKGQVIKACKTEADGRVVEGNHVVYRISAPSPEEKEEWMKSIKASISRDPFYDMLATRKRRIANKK

[3] = molecular target: T3, Cytohesin-3 (Homo sapiens, UniProt O43739); experiment: Inhibition of recombinant C-terminal 6xHis-tagged Grp1 PH domain (unknown origin) expressed in Escherichia coli BL21(DE3) RIL assessed as inhibition of interaction with PtdIns(3,4,5)P3 after 15 mins by SPR analysis
T3 sequence (O43739 whole entry): T2 sequence (whole entry)

inhibition [1]	inhibition [2]	SMILES	IC50 [3]
57%	36%	CCOP(=O)(O)c1cc(C(=O)O)[nH]n1	–
8.3%	48%	COP(=O)(O)C1=NNC(C)(C(=O)O)C1 (stereo unspecified)	–
13%	0%	O=C1[C@@H]2C[C@@H]3CC[C@@]2(O3)[C@@H](P(=O)(O)O)N1Cc1ccccc1	–

SMILES	inhibition [1]	inhibition [2]	IC50 [3]
O=C(O)c1cc(P(=O)(O)O)n[nH]1	61%	77%	38 µM
CC1(C(=O)O)CC([PH](=O)O)=NN1 (stereo unspecified)	8%	63%	–
